From patent publication US4287035A, “Method for producing rapid pH changes” (priority 1979, dated 1981)
“Also recorded” adds a separate entry of the source. Like-named read-outs stand apart in the source and are kept apart here.

Assays:
[1] = Comparison of proton transfer time and excited state lifetime; assay type: physicochemical; conditions: for proton transfer time: excited state; for ability to produce pH change: on electronic excitation
Excerpt: Consider the situation wherein the proton transfer time for either protonation or deprotonation is longer than the excited state lifetime of the molecules in question. In this situation, it is not possible to achieve an acid-base equilibrium during the excited state lifetime. As a result, some of the photons that could be used to produce protons under acid-base equilibrium conditions are no longer available for this purpose because the excitation produced by them is lost in various decay processes from the excited state (see FIG. 1). It will be apparent therefore, that to maximize the pH change for a particular concentration and radiation fluence, it is highly desirable that the proton transfer time be substantially shorter than the excited state lifetime.
It can, however, be readily determined for any compound of interest by means of time resolved spectroscopy of species in the solution. In the case of an acid reaction of the type shown in reaction (1), these would be the acid AH and the anion A^-. Such spectroscopy permits the concentrations of these species to be ascertained.
The requisite spectroscopic measurements are quite straightforward if (a) the excited states of both AH and A^- fluoresce, (b) the fluorescence from the excited states of AH and A^- is sufficiently spectrally shifted that they can be distinguished from one another, and (c) excited state protonation and deprotonation occur with retention of the electronic excitation. […] In those instances where they are not met it is still possible to obtain the necessary information by means of various techniques well known to those versed in the spectroscopic arts. Thus, for example, lack of fluorescence from the excited states of AH and A^- can be overcome by probing with excited-state absorption spectroscopy rather than emission spectroscopy.

[2] = Excited state protonation/deprotonation of 2-naphthol-6-sulfonate by picosecond laser/streak camera fluorescence; assay type: physicochemical
Excerpt: A number of runs were made to obtain measurements from which the rates of excited state protonation and deprotonation kf and kb, respectively, could be determined for the reaction: [formula] […] As long as the solution is not so acidic as to make the protonation reaction fast (pH≤3), the rate of excited state proton transfer is simply determined from the risetime of the anion emission.
Since the fluorescence of 2-naphthol-6-sulfonate (λmax ~360 nm) is considerably shifted from that of its anion (λmax ~430 nm), only the anion emission is recorded when 450±10 nm spectral filter 14 is placed between the sample cell 12 and the slit of streak camera 15. FIG. 4 is a plot of the risetime (10-90%) of the emission from the 2-naphthol-6-sulfonate anion versus the initial pH of the solution. Individual points represent the average of four to six separate streak camera exposures. […] At very high acidities, the protonation rate becomes so rapid that the temporal profile of the excited anion emission follows that of the protonated species.
By measuring the time history of both anionic and acidic species under a variety of experimental conditions and using a kinetic scheme which includes terms for the fluorescence lifetimes and quenching, the complete kinetics of the excited state protonation deprotonation are readily obtained. For 2-naphthol-6-sulfonate, kf =(1.02±0.3)×10^9 sec^-1 and kb =(9.0±3)×10^10 l-mole^-1 -sec^-. The solid line of FIG. 4 is a fit using a kinetic model with kf and kb having these values.

[3] = pH jump (more acidic) by 266 nm irradiation of 2-naphthol-6-sulfonate solution
Excerpt: A single 30 psec pulse 4 at 1064 nm is extracted from the pulse train of mode-locked Nd:YAG laser 1 by means of Blumlein electronic switchout unit 3. The flowing dye 2 serves to mode lock laser 1. A second harmonic of pulse 4 is generated at 532 nm in KDP crystal 5.
Wavelengths other than 532 nm are then removed from pulse 4 by means of spectral filters 6. The 532 nm pulse is reflected from mirror 7 through ADP crystal 8 where it in turn is frequency doubled to produce the fourth harmonic at 266 nm.
Beam splitter 11 directs a portion of the 266 nm pulse to energy meter 20. […] The beam size on sample 12 is ~0.1 mm. […] Appropriate filters 14 are used to isolate various emission bands.
The pH of the solutions was adjusted by addition of reagent grade HCl or NaOH and was measured on a pH meter (Fisher Model 230) accurate to about 0.1 pH unit.

[4] = cited from earlier work; for pK(S0): ground state
[5] = pK values of representative molecules in ground state (S0) and first excited singlet state (S1), Table I; assay type: physicochemical; conditions: S0 to S1
Excerpt: As shown by the data of the tables set forth in Ireland et al., the phenomenon is quite general and is characteristic of bases as well as acids. Ireland et al. is hereby incorporated by reference. Values of pK for representative molecules in the ground state (S0) and the first excited singlet state (S1) are given in Table I. Deprotonation results in increased acidity whereas protonation increases the basicity of the solution. […] The change in pK may be quite large.

[6] = ground state, cited from earlier work
[7] = cited from earlier work
[8] = pH jump (more basic) by irradiation of coumarin 102 solution; assay type: physicochemical
Excerpt: (§1) A proton attaches at the carbonyl site by the reaction [formula] Here Kp is the protonation rate constant and kdp is the deprotonation rate constant.
(§2) Experimental runs utilized laser grade coumarin 102 (Eastman) which was maintained at a concentration of 1.0×10^-3 M in a 1:1 H2 O:ethanol solvent. Deionized, distilled water and reagent grade ethanol were used for all of the runs. The solution pH was varied by the addition of reagent grade HCl and measured to an accuracy of 0.05 pH unit with a pH meter (Markson 90). The apparatus of FIG. 3 was modified to the extent that ADP crystal 8 was replaced by a KDP sum frequency generator to produce […] radiation which excited the sample. Filter 9 was either a 435 nm interference filter or a Corning 2-62 filter to isolate fluorescence from coumarin 102 and its cation, respectively.

[9] = Excited state protonation of coumarin 102 by time-resolved fluorescence; assay type: physicochemical
Excerpt: as §1, §2
The experimental runs were made to obtain measurements of the time history of both species under a variety of experimental conditions.

[10] = 1.0×10^-3 M in water, 266 nm, 20 psec pulse
[11] = reaction as drawn in the line of Table II

In the case of O=S(=O)(O)c1ccc2cc(O)ccc2c1 [2-Naphthol-6-Sulfonate], the excited state lifetime [1] is reported as 1e-08 s, the proton transfer time [1] is reported as “less than 1×10^-9 sec” and the “ability to produce pH change” value [1] is reported as “can be used to produce large and very rapid pH modulation”. For the same compound, the “results with freshly prepared and day-old solutions” value ([2]; 1.0×10^-3 M in water) was “identical”, the “rate of excited state deprotonation/proton transfer, kf” value [2, 10] was “(1.02±0.3)×10^9 sec^-1” and the “rate of excited state protonation, kb” value [2, 10] was “(9.0±3)×10^10 l-mole^-1 -sec^-”. For the same compound, the “risetime (10-90%) of anion emission versus initial pH” value ([2]; 450±10 nm, initial pH varied) was “As the solution becomes more acidic, the risetime becomes more rapid”, the “excited state acid-base equilibrium” value [3] was “excited state acid-base equilibrium is achieved” and the excited state lifetime [3] was “about 10 nsec”. The “increase in H3O^+” value ([3]; 20 psec, 266 nm pulse, typically 30 μJ) was “more than 10^-4 M”, the proton transfer time ([3]; excited state) was “less than 1 nsec” and the “pK(S0)” value [4] was 9.1. For the same compound, the “pK change upon excitation” value [5] was 7.

With Oc1ccc2ccccc2c1 [2-Naphthol] the excited state lifetime [1] was ~ 6×10^-9 sec, the proton transfer time [1] was 2e-08 s and the “ability to produce pH change” value [1] was “cannot; also recorded: the amount of the change is substantially less than that which can be achieved with 2-naphthol-6-sulfonate”. For the same compound, the “pK(S0)” value [4] was 9.5.

In the case of Nc1ccc2ccccc2c1 [2-Naphthylamine], the “pK(S0)” value [6, 11] is given as at least 14 and the “pK(S0)” value ([6]; second 2-Naphthylamine line, reaction drawing 7) is given as 4.1.

In the case of c1ccc2nc3ccccc3cc2c1 [Acridine], the “pK(S0)” value [6, 11] is given as 5.5.

In the case of c1ccc(N=Nc2ccccc2)cc1 [Azobenzene], the “pK(S0)” value [6, 11] is listed as -2.90.

In the case of c1ccc2c(c1)Cc1ccccc1-2 [Fluorene, reference compound], the “pK change upon excitation” value [5] is reported as 29.

In the case of c1ccc2ccccc2c1 [Naphthalene], the “pK(S0)” value [6, 11] is listed as -4.0.

For c1ccc2c(c1)ccc1ccccc12 [Phenanthrene, reference compound], the “acidity/basicity in ground and excited state” value ([4]; ground state versus first excited singlet state) is listed as “becomes less acidic (more basic) in the excited state” and the “pK(S0)” value [4] is listed as -3.5.

For O=c1c2ccccc2oc2ccccc12 [Xanthone], the “pK(S0)” value [6, 11] is listed as -4.1 and the triplet state lifetime [7] is listed as “several to tens of milliseconds”.

In the case of O=C(c1ccccc1)c1ccccc1 [benzophenone], the triplet state lifetime [7] is given as “several to tens of milliseconds”.

In the case of Cc1cc(=O)oc2c3c4c(cc12)CCCN4CCC3 [coumarin 102], the “quenching of excited states” value ([8]; concentrations near 10^-3 M) is reported as “no evidence of quenching of excited states”, the “pH after pH jump” value ([8]; initial pH 4, 355 nm pulses >1 mJ) is reported as 4.1 and the “deprotonation during excited state lifetime” value ([9]; 1:1 H2O:ethanol) is reported as “very small”. The “excited state acid-base equilibrium” value ([9]; 1:1 H2O:ethanol) was “excited state acid-base equilibrium is not achieved”, the excited state lifetime ([9]; 1.0×10^-3 M in 1:1 H2O:ethanol) was 3.3±0.3 nsec and the “excited state protonation rate constant kp” value ([9]; 1.0×10^-3 M in 1:1 H2O:ethanol, 355 μm (so in the source) excitation) was “(1.6 ±0.3)×10^10 l-mole^-1 -sec^-1”.
